# Reference: BindingDB's records for PubMed 38359536 (China Pharmaceutical University)
# Target: Protein arginine N-methyltransferase 5 (Homo sapiens, UniProt O14744)
# Assay: Inhibition of human PRMT5 expressed in HEK293 cells coexpressing MEP50 incubated for 60 mins by chemiluminescent assay
# Protein arginine N-methyltransferase 5, sequence (O14744 whole entry): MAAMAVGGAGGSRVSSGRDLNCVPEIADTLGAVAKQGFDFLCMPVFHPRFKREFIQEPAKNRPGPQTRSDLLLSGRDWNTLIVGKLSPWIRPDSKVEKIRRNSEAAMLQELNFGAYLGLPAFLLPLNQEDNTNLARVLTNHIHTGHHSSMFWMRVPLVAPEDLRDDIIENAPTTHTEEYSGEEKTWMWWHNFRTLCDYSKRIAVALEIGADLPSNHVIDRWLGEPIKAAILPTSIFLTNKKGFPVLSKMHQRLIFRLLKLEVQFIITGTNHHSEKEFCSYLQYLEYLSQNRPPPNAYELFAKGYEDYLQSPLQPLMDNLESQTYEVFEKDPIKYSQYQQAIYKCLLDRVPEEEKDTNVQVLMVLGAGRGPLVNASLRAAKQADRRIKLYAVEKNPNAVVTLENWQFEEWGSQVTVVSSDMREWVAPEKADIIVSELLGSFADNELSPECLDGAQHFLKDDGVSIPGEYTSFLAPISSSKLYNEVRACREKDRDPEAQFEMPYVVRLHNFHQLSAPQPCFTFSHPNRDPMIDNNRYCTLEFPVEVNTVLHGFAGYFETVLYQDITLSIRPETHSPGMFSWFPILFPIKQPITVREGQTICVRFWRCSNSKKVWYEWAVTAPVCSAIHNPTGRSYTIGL
structure (smiles),measurement,value
"CC(=O)N1CCC(Nc2cc(C(=O)NC[C@H](O)CN3CCc4c([nH]c5ccccc45)C3)ncn2)CC1 [(S)-6-((1-acetylpiperidin-4-yl)amino)-N-(2-hydroxy-3-(1,3,4,9-tetrahydro-2H-pyrido [3,4-b]indol-2-yl)propyl)pyrimidine-4-carboxamide]",IC50,10 nM
